The results in this text go back to patent publication US20260378560A1, “APPROACHES TO DESIGNING AND PERFORMING COMPRESSED BIOLOGICAL EXPERIMENTS AND SYSTEMS FOR IMPLEMENTING THE SAME” (EXVIVO LABS INC., priority 2023, published 2026).

For the first assay, the system named is REH. Put plainly: Cell viability (CellTiter Glo), library of cancer drugs, individual or sample compression with randomized (alphabetical) pools, REH. Format: cell-based. The following applies: REH, None (measured individually). A digest of the protocol: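 Cells cultured with each drug individually at 1 nM–10 μM; viability by ATP luminescence (CellTiter Glo) to build dose-response curves and DRS. Samples read singly or pooled alphabetically (each drug in 3 of 7 pools), with pooled DRS recovered by additivity-based SUM deconvolution.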
(In ATP-based viability assays light output follows the ATP content of the culture.)
Compound `CC1(C)CCC(CN2CCN(c3ccc(C(=O)NS(=O)(=O)c4ccc(NCC5CCOCC5)c([N+](=O)[O-])c4)c(Oc4cnc5[nH]ccc5c4)c3)CC2)=C(c2ccc(Cl)cc2)C1` [Venetoclax] returned a DRS of 3.91.

In turn, `N#Cc1ccnc(N2C(=O)CC[C@H]2C(=O)N(c2cncc(F)c2)[C@H](C(=O)NC2CC(F)(F)C2)c2ccccc2Cl)c1` [Ivosidenib] yielded a DRS of 0.37.

Regarding `Cc1[nH]c2ccccc2c1CCNCc1ccc(/C=C/C(=O)NO)cc1` [Panobinostat], the DRS is reported as 13.34.

In turn, `C=CC(=O)Nc1cc(Nc2nccc(-c3cn(C)c4ccccc34)n2)c(OC)cc1N(C)CCN(C)C` [Osimertinib] displayed a DRS of 5.84.

For `COc1c(OCCCN2CCOCC2)ccc2c1N=C(NC(=O)c1cnc(N)nc1)N1CCN=C21` [Copanlisib], the DRS is listed as 12.67.

As to `COc1cc2ncnc(Nc3ccc(F)c(Cl)c3)c2cc1OCCCN1CCOCC1` [Gefitinib], the DRS is listed as 5.66.

The assay is the same for the next values; noted with them: REH, Samples, 7 Pick 3 randomized (alphabetical) sample pools.
Turning to `CC1(C)CCC(CN2CCN(c3ccc(C(=O)NS(=O)(=O)c4ccc(NCC5CCOCC5)c([N+](=O)[O-])c4)c(Oc4cnc5[nH]ccc5c4)c3)CC2)=C(c2ccc(Cl)cc2)C1` [Venetoclax], the DRS from deconvolution is reported as 4.05.

Regarding `N#Cc1ccnc(N2C(=O)CC[C@H]2C(=O)N(c2cncc(F)c2)[C@H](C(=O)NC2CC(F)(F)C2)c2ccccc2Cl)c1` [Ivosidenib], the DRS from deconvolution was found to be 0.00.

`Cc1[nH]c2ccccc2c1CCNCc1ccc(/C=C/C(=O)NO)cc1` [Panobinostat] yielded a DRS from deconvolution of 13.96.

In turn, `C=CC(=O)Nc1cc(Nc2nccc(-c3cn(C)c4ccccc34)n2)c(OC)cc1N(C)CCN(C)C` [Osimertinib] came in with a DRS from deconvolution of 6.12.

`COc1c(OCCCN2CCOCC2)ccc2c1N=C(NC(=O)c1cnc(N)nc1)N1CCN=C21` [Copanlisib] displayed a DRS from deconvolution of 12.51.

In the case of `COc1cc2ncnc(Nc3ccc(F)c(Cl)c3)c2cc1OCCCN1CCOCC1` [Gefitinib], the DRS from deconvolution is reported as 5.59.

Another assay deals with REH. Nature of the assay: Cell viability (CellTiter Glo), compressed perturbation pools with informed pool design, MAX-based deconvolution, REH.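 On DRS from MAX-based deconvolution: higher DRS means a larger drug effect.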 The following applies: REH, None (measured individually), informed pool design table. The essentials: (§1)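 Drugs dosed from 1 nM to 10 μM with ATP-luminescence viability, giving a DRS per drug. Pools designed by drug class, with same-class drugs in separate cohorts and clinically toxic pairs kept apart.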
As to `CC1(C)CCC(CN2CCN(c3ccc(C(=O)NS(=O)(=O)c4ccc(NCC5CCOCC5)c([N+](=O)[O-])c4)c(Oc4cnc5[nH]ccc5c4)c3)CC2)=C(c2ccc(Cl)cc2)C1` [Venetoclax], the DRS came to 4.37.

`N#Cc1ccnc(N2C(=O)CC[C@H]2C(=O)N(c2cncc(F)c2)[C@H](C(=O)NC2CC(F)(F)C2)c2ccccc2Cl)c1` [Ivosidenib]: the DRS is reported as 3.12.

With `Cc1[nH]c2ccccc2c1CCNCc1ccc(/C=C/C(=O)NO)cc1` [Panobinostat], the DRS turned out to be 3.01.

Consider `C=CC(=O)Nc1cc(Nc2nccc(-c3cn(C)c4ccccc34)n2)c(OC)cc1N(C)CCN(C)C` [Osimertinib], for which the DRS came out at 0.10.

As to `COc1c(OCCCN2CCOCC2)ccc2c1N=C(NC(=O)c1cnc(N)nc1)N1CCN=C21` [Copanlisib], the DRS is given as 1.63.

As to `COc1cc2ncnc(Nc3ccc(F)c(Cl)c3)c2cc1OCCCN1CCOCC1` [Gefitinib], the DRS is 0.00.

Staying with this assay, now noted: REH, Samples, 7 Pick 3 informed perturbation pools.
Regarding `CC1(C)CCC(CN2CCN(c3ccc(C(=O)NS(=O)(=O)c4ccc(NCC5CCOCC5)c([N+](=O)[O-])c4)c(Oc4cnc5[nH]ccc5c4)c3)CC2)=C(c2ccc(Cl)cc2)C1` [Venetoclax], the “DRS from MAX-based deconvolution” value stood at 0.00.

Take `N#Cc1ccnc(N2C(=O)CC[C@H]2C(=O)N(c2cncc(F)c2)[C@H](C(=O)NC2CC(F)(F)C2)c2ccccc2Cl)c1` [Ivosidenib]: the “DRS from MAX-based deconvolution” value was 3.55.

Regarding `Cc1[nH]c2ccccc2c1CCNCc1ccc(/C=C/C(=O)NO)cc1` [Panobinostat], the “DRS from MAX-based deconvolution” value turned out to be 3.96.

Take `C=CC(=O)Nc1cc(Nc2nccc(-c3cn(C)c4ccccc34)n2)c(OC)cc1N(C)CCN(C)C` [Osimertinib]: the “DRS from MAX-based deconvolution” value is reported as 0.00.

As to `COc1c(OCCCN2CCOCC2)ccc2c1N=C(NC(=O)c1cnc(N)nc1)N1CCN=C21` [Copanlisib], the “DRS from MAX-based deconvolution” value worked out at 2.12.

With `COc1cc2ncnc(Nc3ccc(F)c(Cl)c3)c2cc1OCCCN1CCOCC1` [Gefitinib], the “DRS from MAX-based deconvolution” value is recorded as 0.00.

The same assay, now with this note: REH; compressed perturbation pools, informed pool design; MAX-based deconvolution.
As to `CC1(C)CCC(CN2CCN(c3ccc(C(=O)NS(=O)(=O)c4ccc(NCC5CCOCC5)c([N+](=O)[O-])c4)c(Oc4cnc5[nH]ccc5c4)c3)CC2)=C(c2ccc(Cl)cc2)C1` [Venetoclax], the “DRS, REH, MAX” value was 4.43.

In the case of `C=CC(=O)Nc1cc(Nc2nccc(-c3cn(C)c4ccccc34)n2)c(OC)cc1N(C)CCN(C)C` [Osimertinib], the “DRS, REH, MAX” value was determined as 0.00.

Consider `COc1cc2ncnc(Nc3ccc(F)c(Cl)c3)c2cc1OCCCN1CCOCC1` [Gefitinib], for which the “DRS, REH, MAX” value is on record as 4.06.

A further assay has as its system MOLT-4. Put plainly: Cell viability (CellTiter Glo), compressed perturbation pools with informed pool design, MAX-based deconvolution, MOLT-4.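 On DRS from MAX-based deconvolution: higher DRS means a larger drug effect.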 The following applies: MOLT-4, None (measured individually), informed pool design table. The essentials:
as §1
On to `CC1(C)CCC(CN2CCN(c3ccc(C(=O)NS(=O)(=O)c4ccc(NCC5CCOCC5)c([N+](=O)[O-])c4)c(Oc4cnc5[nH]ccc5c4)c3)CC2)=C(c2ccc(Cl)cc2)C1` [Venetoclax], for which the DRS amounted to 3.37.

With `N#Cc1ccnc(N2C(=O)CC[C@H]2C(=O)N(c2cncc(F)c2)[C@H](C(=O)NC2CC(F)(F)C2)c2ccccc2Cl)c1` [Ivosidenib], the DRS came to 1.12.

As to `Cc1[nH]c2ccccc2c1CCNCc1ccc(/C=C/C(=O)NO)cc1` [Panobinostat], the DRS is recorded as 3.01.

With `C=CC(=O)Nc1cc(Nc2nccc(-c3cn(C)c4ccccc34)n2)c(OC)cc1N(C)CCN(C)C` [Osimertinib], the DRS was 0.10.

As for `COc1c(OCCCN2CCOCC2)ccc2c1N=C(NC(=O)c1cnc(N)nc1)N1CCN=C21` [Copanlisib], the DRS was determined as 0.03.

As to `COc1cc2ncnc(Nc3ccc(F)c(Cl)c3)c2cc1OCCCN1CCOCC1` [Gefitinib], the DRS stood at 0.00.

Still in this assay, the particulars now being: MOLT-4, Samples, 7 Pick 3 informed perturbation pools.
Turning to `CC1(C)CCC(CN2CCN(c3ccc(C(=O)NS(=O)(=O)c4ccc(NCC5CCOCC5)c([N+](=O)[O-])c4)c(Oc4cnc5[nH]ccc5c4)c3)CC2)=C(c2ccc(Cl)cc2)C1` [Venetoclax], the “DRS from MAX-based deconvolution” value was 3.88.

Consider `N#Cc1ccnc(N2C(=O)CC[C@H]2C(=O)N(c2cncc(F)c2)[C@H](C(=O)NC2CC(F)(F)C2)c2ccccc2Cl)c1` [Ivosidenib], for which the “DRS from MAX-based deconvolution” value came out at 1.96.

`Cc1[nH]c2ccccc2c1CCNCc1ccc(/C=C/C(=O)NO)cc1` [Panobinostat]: the “DRS from MAX-based deconvolution” value came to 3.24.

As to `C=CC(=O)Nc1cc(Nc2nccc(-c3cn(C)c4ccccc34)n2)c(OC)cc1N(C)CCN(C)C` [Osimertinib], the “DRS from MAX-based deconvolution” value is 0.00.

Take `COc1c(OCCCN2CCOCC2)ccc2c1N=C(NC(=O)c1cnc(N)nc1)N1CCN=C21` [Copanlisib]: the “DRS from MAX-based deconvolution” value came to 0.03.

Consider `COc1cc2ncnc(Nc3ccc(F)c(Cl)c3)c2cc1OCCCN1CCOCC1` [Gefitinib], for which the “DRS from MAX-based deconvolution” value worked out at 0.00.

Staying with this assay, now noted: MOLT-4; compressed perturbation pools, informed pool design; MAX-based deconvolution.
On to `CC1(C)CCC(CN2CCN(c3ccc(C(=O)NS(=O)(=O)c4ccc(NCC5CCOCC5)c([N+](=O)[O-])c4)c(Oc4cnc5[nH]ccc5c4)c3)CC2)=C(c2ccc(Cl)cc2)C1` [Venetoclax], for which the “DRS, MOLT-4, MAX” value was 3.41.

As for `C=CC(=O)Nc1cc(Nc2nccc(-c3cn(C)c4ccccc34)n2)c(OC)cc1N(C)CCN(C)C` [Osimertinib], the “DRS, MOLT-4, MAX” value stood at 0.00.

For `COc1cc2ncnc(Nc3ccc(F)c(Cl)c3)c2cc1OCCCN1CCOCC1` [Gefitinib], the “DRS, MOLT-4, MAX” value is 0.00.
